# Measured values taken from patent publication US9200082B2, “Methods and compositions involving fibrillizing polypeptides for nanofibers” (The University of Chicago, priority 2013, dated 2015).
# Legend:
# [1] = test system: Q11 microgels; experiment: Q11 microgel fluorescence microscopy
# Procedure: Lyophilized Q11 was dissolved in deionized water at a final concentration of 10 mM by vortexing for 5 min. Aqueous Q11 solutions were diluted 10-fold with 1×PBS containing GFP (Vector Labs cat# MB-0752), βTmutant-GFP, or one or more βTail fusion proteins at a total protein concentration between 0.25-1.5 μM, or tryptophan-terminated βTail (W-βTail) at a concentration between 10-100 μM. These solutions were then incubated under static conditions for nanofiber assembly, or on a LabNet Rocker 35 rocker table (speed setting 4) (New Jersey) to induce microgel formation.
# Q11 microgel fluorescence was analyzed using a Zeiss Axioscope inverted epifluorescent microscope. Dapi filters were used to visualize βTail-GFPuv; FITC filters were used to visualize βTail-eGFP; and TRITC filters were used to visualize βTail-dsRED. Fluorescence emission of any protein with the inappropriate filter (e.g. βTail-GFPuv with FITC) was negligible (FIG. 5). Due to differences in the quantum efficiency of each protein, exposure time was adjusted until the grayscale image intensity of microgels containing 0.33 μM βTail-GFP, βTail-eGFP, or βTail-dsRED alone was similar (e.g. 0.75 sec for βTail-GFP, 1.5 sec for βTail-eGFP, and 2.5 sec for βTail-dsRED). […]
# [2] = test system: C57BL/6 mice; experiment: Immunization, anti-GFP Ig isotyping ELISA; format: in vivo; settings: after primary and booster immunizations, serum week 7
# Procedure: Q11 microgels bearing βTail-GFP or βTail-cut were prepared as described above, except the materials were incubated at 4 deg C., rather than room temperature. GFP content in the microgels was analyzed fluorimetrically as described above, and the concentration of GFP in the microgels was used as the basis for βTail-GFP dose in the PBS group. Similarly, cutinase content in the microgels was analyzed with the μABCA assay kit (Pierce), according to the manufacturer's instructions, and βTail-cut dose in the microgels was used as the basis for βTail-cut dose in PBS group. Endotoxin content of all vaccines was analyzed with the Limulus Amoebocyte Lysate assay kit (Lonza) according to the manufacturer's instructions immediately before immunization, and all materials were below the upper limit of 1 EU/mL. Female C57BL/6 mice (6-8 weeks old, Taconic Farms, Ind.) were each given two 50 μL subcutaneous injections near the shoulder blades for each primary and booster immunization, similar to previously reported methods (Hudalla 2013). […]
# For all isotyping ELISAs, following overnight coating with 1 μg/mL βTmutant-GFP in PBS or PBS, all plates were washed 3 times with 0.5% Tween-20 in PBS. […] Absorbance was then measured at 450 nm with a SpectraMax M5 plate reader.
substance,measurement,setting,value
"βTail-GFP: recombinant fusion of βTail, Gly-Ser linker, GFPuv and His6 expressed in E. coli; SEQ ID NO. 65",fluorescence (activity) after integration into Q11 nanofibers,[1],fluorescence was not perturbed when integrated into Q11 nanofibers
same,serum Ig isotype profile,[2],a more balanced IgM/IgG1 isotype profile
